Article PMC6805867, “Amphiphilic Triazine Polymer Derivatives as Antibacterial And Anti-atopic Agents in Mice Model” (Scientific Reports, 2019)

Tests used:
[1] = system: TGF-β, TNF-α, iNOS, COX-2 protein in dorsal tissue; experiment: DNCB-induced AD model, western blot of inflammatory mediators; assay type: in vivo, BALB/c mice; settings: versus AD mice
Protocol: (§1) As described in our previous article, the 7-week-old female BALB/c mice were divided into seven groups (n = 8 per group): Control (Con) group, TZP3 200 μg/mL (TZP3) group, and TZP5 200 μg/mL (TZP5) group, DNCB-sensitized only (AD) group, DNCB-sensitized + TZP3 200 μg/mL (AD + TZP3) group, DNCB-sensitized + TZP5 200 μg/mL (AD + TZP5) group, DNCB-sensitized + Dermatop (Sanofi, Korea) 0.25% (AD + Dermatop) group. Dermatop was used as a positive control treatment. For the first induction of AD in the BALB/c mice, the backs of the mice were shaved and challenged with 200 μL of 1% 2,4-dinitrochlorobenzene(DNCB) in acetone/olive oil (3:1) one time (day−4). After 4 days from the induction, 0.5% DNCB was painted onto the backs of the mice every two days (day 2, 4, 6, 8, 10, 12, 14, 16 and 18). Concentrations of 200 μg/mL TZP3 or TZP5 in 20 μL of PBS were applied to the dorsal skin once daily for 18 days.
Frozen skins from the mice were homogenized in liquid nitrogen. For the western blot analysis, the tissues were lysed in a RIPA lysis buffer(Sigma) containing 1% protease inhibitor. The cell lysates were incubated on ice for 1 h and then the homogenates were centrifuged at 13000 rpm for 20 min at 4 °C. […] The antibody-specific proteins were visualized with enhanced chemiluminescence (ECL) detection reagent and quantified using the ImageJ software. […]

[2] = system: serum total IgE and IgG2a; experiment: DNCB-induced AD model, serum immunoglobulins by ELISA; assay type: in vivo, BALB/c mice; settings: versus AD-induced mice
Protocol: as §1
Blood was collected from each experimental group via cardiac puncture and was centrifuged at 3000 rpm and 4 °C for 20 min to obtain the serum. The levels of IgE, IgG2a were measured with an enzyme-linked immunosorbent assay kit (Bethyl Laboratories, Montgomery, TX, USA), following the manufacturer’s instructions.

[3] = system: Vancomycin-resistant Enterococcus faecium (VREF) ATCC 51559; experiment: MIC against antibiotic-resistant bacteria; assay type: cell-based; settings: broth microdilution, 37 °C, 18–22 h
Protocol: (§2) The bacterial strains employed in the experiment were Escherichia coli (KCTC 1682), Pseudomonas aeruginosa (KCTC 1637), Bacillus subtilis (KCTC 3068), Staphylococcus aureus (KCTC 1621), three methicillin-resistant Staphylococcus aureus (CCARM 3089, 3090 and 3095), two multidrug-resistant Pseudomonas aeruginosa (CCARM 2095 and 2109) and vancomycin-resistant Enterococcus faecium (ATCC 51559). The antimicrobial activities of polymers were determined by the broth microdilution method, and the procedures were used as previously reported. Briefly, bacteria grown to mid-logarithmic phase in LB broth were diluted to 2 × 10^6 CFU/mL in 1% peptone and added to serial two-fold dilutions of different polymers ranging from 1 to 64 μg/mL. The plates were incubated in a shaking incubator at 37 °C for 18–22 h. The minimum inhibitory concentration (MIC) was determined by confirming the absence of bacterial growth both visually and spectrophotometrically by OD600 readings taken by a microplate ELISA reader (Molecular Devices, Sunnyvale, CA, USA). All measurements were performed three times.

[4] = system: inflammatory cytokine expression in dorsal skin tissue; experiment: DNCB-induced AD model, cytokine mRNA expression by real-time PCR; assay type: in vivo, BALB/c mice; settings: AD-like skin lesions, n = 8
Protocol: as §1
For the reverse transcription (RT) - polymerase chain reaction (PCR), the total cellular RNA was isolated from the dorsal skin tissue of each treatment group using TRIzol according to the manufacturer’s protocol. The first-strand complementary DNA (cDNA) was synthesized using Superscript II reverse transcriptase (Invitrogen). The conditions for RT-PCR were similar ones that have been previously described in related studies. Quantitative real-time PCR was carried out using a Thermal Cycler Dice TP850 (Takarabio Inc., Shiga, Japan) according to the manufacturer’s protocol. Briefly, 2 μL of cDNA (100 ng), 1 μL of sense and antisense primer solution (0.4 µM), 12.5 μL of SYBR Premix Ex Taq (Takarabio Inc.), and 9.5 μL of dH2O were mixed to obtain a final 25-μL reaction mixture in each reaction tube. The amplification conditions were as follows: 10 s at 95 °C, 40 cycles of 5 s at 95 °C and 30 s at 60 °C, 15 s at 95 °C, 30 s at 60 °C, and 15 s at 95 °C. The mRNA levels of the target genes relative to that of GAPDH were normalized as follows: relative mRNA expression = 2^-(ΔCt of target gene−ΔCt of GAPDH), where Ct is the threshold cycle value. In each sample, the expression level of the analyzed gene was normalized to that of GAPDH and presented as a relative mRNA level.

[5] = system: selected bacterial strains; experiment: Geometric mean of MIC values over the bacterial strains; assay type: cell-based; settings: geometric mean of MIC values from selected six bacterial strains (footnote b)
Protocol: as §2

[6] = system: HaCaT cells; experiment: Cytotoxicity, MTT assay; assay type: cell-based; settings: 24 h, maximum tested concentration (20 µg)
Protocol: page 6: Figure S2. Effect of TZP3 and TZP5 on β-hexosaminidase release in RBL-2H3 cells Cytotoxicity evaluation of TZP3 and TZP5 on HaCaT cells Figure S3: Cytotoxicity evaluation of TZP3 […] and TZP5 (b) on HaCaT cells. TZP3 and TZP5 were treated with HaCaT cells in various concentrations for 24 h followed by MTT assay, and absorbance was measured. Cell viability was calculated as the relative absorbance. […]

SMILES | protein expressions (TGF-β, TNF-α, iNOS, COX-2) in dorsal tissue [1] | serum level of total IgE [2] | serum level of total IgG2a [2] | MIC VREF ATCC 51559 [3] | IL-4 suppression (mRNA expression) [4] | inhibition of IFN-γ mRNA expression [4] | inhibition of IL-1β mRNA expression [4] | inhibition of IL-13 mRNA expression [4] | inhibition of IL-17 mRNA expression [4] | inhibition of TNF-α mRNA expression [4] | suppression of IL-6 mRNA expression [4] | suppression of IL-10 mRNA expression [4] | GM (geometric mean of MIC values) [5] | cytotoxicity in HaCaT cells [6]
NCCCN(CCCN)c1nc(N)nc(NCCNc2nc(Cl)nc(N(Cc3ccccc3)Cc3ccccc3)n2)n1 [TZP3] | significant decrease | significantly reduced | significantly reduced | 8 [13.5] µg/mL | around 35% | around 60% | more than 70% | more than 70% | 60% | approximately 55% | around 60% | around 35% | 4.5 [7.6] μg/mL | didn’t show significant cytotoxicity
NCCCN(CCCN)c1nc(Cl)nc(NCCNc2nc(NCCNc3nc(N)nc(NCCC(c4ccccc4)c4ccccc4)n3)nc(N(CCCN)CCCN)n2)n1 [TZP5] | significant decrease | significantly reduced | significantly reduced | 4 [3] µg/mL | around 35% | around 60% | > 75% | > 75% | more than 85% | ~65% | ~50% | almost similar potency with the dermatop | 3.0 µg/mL | didn’t show significant cytotoxicity
